Measurements reported in patent US5665861A, “Cardiodilatin fragment, process for preparing same and use thereof” (HaemoPep Pharma GmbH, priority 1987, dated 1997).

Test system: membrane preparation from dog kidney cortex
Assay: Inactivation by membrane preparation from dog kidney cortex
Type: in vitro ADME
Description: A unique proteolytic product separated by HPLC on a reverse phase column appears as a single peak which elutes prior to the intact peptide.

position of the inactivating cleavage of the ring structure: between Cys-105 and Phe-106
SMILES: CC[C@H](C)[C@@H]1NC(=O)[C@H](CCCNC(=N)N)NC(=O)[C@H](CC(=O)O)NC(=O)[C@H](CCSC)NC(=O)[C@H](CCCNC(=N)N)NC(=O)CNC(=O)CNC(=O)[C@H](Cc2ccccc2)NC(=O)[C@@H](NC(=O)[C@H](CO)NC(=O)[C@H](CO)NC(=O)[C@H](CCCNC(=N)N)NC(=O)[C@H](CCCNC(=N)N)NC(=O)[C@H](CC(C)C)NC(=O)[C@@H](N)CO)CSSC[C@@H](C(=O)N[C@@H](CC(N)=O)C(=O)N[C@@H](CO)C(=O)N[C@@H](Cc2ccccc2)C(=O)N[C@@H](CCCNC(=N)N)C(=O)N[C@@H](Cc2ccc(O)cc2)C(=O)O)NC(=O)CNC(=O)[C@H](CC(C)C)NC(=O)CNC(=O)[C@H](CO)NC(=O)[C@H](CCC(N)=O)NC(=O)[C@H](C)NC(=O)CNC1=O [ANF-(99-126)]
